In general, TGI refers to the concentration giving total growth inhibition. A higher TGI goes with lower sensitivity of the cells. A word on the GI50: it is the concentration at which growth is held to half of that of the control.

Several values for one entry are separate records, joined by “and”; a condition that tells them apart may be missing. Equal entries are not always repeated.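 Following 48 hours of exposure in 96-well plates, responses at five concentrations were used to interpolate endpoints linearly. GI50 = concentration required for 50% inhibition of growth. TGI marks complete inhibition of growth.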

Test systems include A498 renal; MDA-MB-231 breast; MOLT-4 leukemia; NCI-H23 lung; NCI-H522 lung; OVCAR-5 ovarian; RXF 393 renal; SF-295 CNS; SW-620 colon; UACC-257 melanoma.
Common to all, as to assay: DTP human tumour cell line panel, 48 h

With `COc1cc2c(cc1OC)C13CCN4C=C5CCOC6CC(=O)N2C1C6C5CC43` (stereo unspecified), the concentration for total growth inhibition (TGI) in the experiment with A498 renal, in the experiment with MDA-MB-231 breast, in the experiment on MOLT-4 leukemia, in the experiment with NCI-H23 lung, in the experiment on NCI-H522 lung and with OVCAR-5 ovarian was greater than 100 µM throughout. Moreover, the TGI in the experiment with RXF 393 renal, in the experiment with SF-295 CNS, in the experiment with SW-620 colon and in the experiment on UACC-257 melanoma was greater than 100 µM each time.
For the molecule `CN(C)CCCOc1ccccc1NC1=C(Cl)C(=O)C(Nc2ccccc2OCCCN(C)C)=C(Cl)C1=O`, the GI50 in the experiment with A498 renal is 1.84 µM; in the experiment on MDA-MB-231 breast it was 0.511 µM; in the experiment on MOLT-4 leukemia it was 0.223 µM; in the experiment with NCI-H23 lung, 0.57 µM; in the experiment on NCI-H522 lung it was 0.17 µM; in the experiment with OVCAR-5 ovarian, 1.4 µM. Moreover, the GI50 in the experiment on RXF 393 renal was 1.17 µM; in the experiment with SF-295 CNS, 1.53 µM; in the experiment with SW-620 colon, 0.207 µM; in the experiment on UACC-257 melanoma, 1.17 µM. The TGI with A498 renal was 5.6 µM; in the experiment on MDA-MB-231 breast it was 1.4 µM; in the experiment on MOLT-4 leukemia, 0.578 µM; with NCI-H23 lung it was 1.38 µM; with NCI-H522 lung, 0.383 µM; in the experiment on OVCAR-5 ovarian, 2.84 µM. Further, the concentration for total growth inhibition (TGI) in the experiment on RXF 393 renal came out at 2.43 µM; with SF-295 CNS, 2.9 µM; in the experiment with SW-620 colon it was 0.415 µM; in the experiment with UACC-257 melanoma, 2.69 µM.
In the case of `CO[C@H](C(=O)[C@@H](O)[C@@H](C)O)[C@@H]1Cc2cc3cc(O[C@H]4C[C@@H](O[C@H]5C[C@@H](O)[C@H](O)C(C)O5)[C@H](O)C(C)O4)c(C)c(O)c3c(O)c2C(=O)[C@H]1O[C@H]1C[C@@H](O[C@H]2C[C@@H](O[C@H]3C[C@@H](OC)[C@H](O)C(C)O3)[C@@H](O)C(C)O2)C(O)(O)C(C)O1` (stereo partly specified), the 50% growth inhibitory concentration (GI50) in the experiment with A498 renal was 0.0198 µM; in the experiment with MDA-MB-231 breast, 0.794 µM; in the experiment on MOLT-4 leukemia, 0.57 µM; in the experiment with NCI-H23 lung it was 0.176 µM; in the experiment on NCI-H522 lung it was 0.0168 µM; with OVCAR-5 ovarian it was 0.376 µM. For the same molecule, the concentration for 50% growth inhibition (GI50) was 0.0525 µM in the experiment with RXF 393 renal, 0.0601 µM in the experiment on SF-295 CNS, 0.164 µM in the experiment on SW-620 colon and 0.0371 µM with UACC-257 melanoma. In addition, the total growth inhibition concentration (TGI) is 0.115 µM with A498 renal; 24.5 µM with MDA-MB-231 breast; greater than 25 µM in the experiment on MOLT-4 leukemia; 4.22 µM in the experiment with NCI-H23 lung; 0.304 µM with NCI-H522 lung; greater than 25 µM in the experiment on OVCAR-5 ovarian. Also, the TGI in the experiment on RXF 393 renal is 0.306 µM; in the experiment on SF-295 CNS, greater than 25 µM; in the experiment on SW-620 colon, greater than 25 µM; in the experiment on UACC-257 melanoma, 0.511 µM.
Take `Cc1c2cc[nH]c(=O)c2c(C)c2c1[nH]c1cc(OCCN3CCN(C)CC3)ccc12`: the GI50 was 1.3 µM in the experiment on A498 renal; 0.783 µM with MDA-MB-231 breast; 0.456 µM in the experiment with MOLT-4 leukemia; 0.833 µM in the experiment with NCI-H23 lung; 0.718 µM in the experiment with NCI-H522 lung; 0.944 µM in the experiment with OVCAR-5 ovarian. Further, the GI50 in the experiment on RXF 393 renal is 1.21 µM; with SF-295 CNS, 0.788 µM; in the experiment with SW-620 colon it was 0.381 µM; in the experiment on UACC-257 melanoma, 2.51 µM. Further, the TGI in the experiment with A498 renal was 2.94 µM; with MDA-MB-231 breast, 3.19 µM; in the experiment on MOLT-4 leukemia, 5.51 µM; in the experiment with NCI-H23 lung it was 3.67 µM; with NCI-H522 lung, 2.76 µM; with OVCAR-5 ovarian, 11.6 µM. Also, the concentration for total growth inhibition (TGI) stood at 2.72 µM in the experiment on RXF 393 renal, 7.76 µM in the experiment on SF-295 CNS, 2.48 µM in the experiment with SW-620 colon and 7.72 µM in the experiment on UACC-257 melanoma.
Regarding `O=C(c1ccccc1)c1c(NCC(O)CN2CCCC2)n(Cc2ccccc2)c(=O)n(Cc2ccccc2)c1=O` (stereo unspecified), the GI50 in the experiment on A498 renal was 2.3 µM; with MDA-MB-231 breast, 15.3 µM; in the experiment with MOLT-4 leukemia it was 19.7 µM; in the experiment with NCI-H23 lung it was 20 µM; in the experiment with NCI-H522 lung, 19.8 µM; in the experiment on OVCAR-5 ovarian, 29.7 µM. Moreover, the GI50 is 21.6 µM with RXF 393 renal, 18 µM in the experiment on SF-295 CNS, 15.6 µM with SW-620 colon and 21 µM in the experiment with UACC-257 melanoma. Besides, the concentration for total growth inhibition (TGI) in the experiment with A498 renal is 12.7 µM; in the experiment with MDA-MB-231 breast, 29.6 µM; with MOLT-4 leukemia, greater than 100 µM; in the experiment with NCI-H23 lung it was 44.1 µM; in the experiment on NCI-H522 lung, 35.6 µM; with OVCAR-5 ovarian it was 82 µM. The TGI in the experiment on RXF 393 renal is 53.3 µM; in the experiment with SF-295 CNS it was 33.7 µM; in the experiment on SW-620 colon, 30.4 µM; in the experiment on UACC-257 melanoma, 42.3 µM.
As for `O=[N+]([O-])c1ccc(Nc2ccccc2-c2ccccc2)c2nonc12`, the GI50 with A498 renal is 14.8 µM; in the experiment with MDA-MB-231 breast, 14.5 µM; with MOLT-4 leukemia, 20 µM; in the experiment on NCI-H23 lung, 8.63 µM; in the experiment with NCI-H522 lung, 11.6 µM; in the experiment with OVCAR-5 ovarian, 22.4 µM. Moreover, the GI50 in the experiment with RXF 393 renal was 13.7 µM; with SF-295 CNS, 11.7 µM; with SW-620 colon, 18 µM; with UACC-257 melanoma it was 12.3 µM. Further, the TGI was found to be 41.6 µM in the experiment with A498 renal; 31.2 µM in the experiment on MDA-MB-231 breast; 88.2 µM with MOLT-4 leukemia; 26.1 µM in the experiment on NCI-H23 lung; 37.5 µM in the experiment on NCI-H522 lung; 62.9 µM with OVCAR-5 ovarian. For the same molecule, the TGI in the experiment with RXF 393 renal is 28.7 µM; with SF-295 CNS, 29.7 µM; with SW-620 colon, 44.8 µM; with UACC-257 melanoma, 79.1 µM.
In the case of `Cc1ccc(C(=O)N(CCCN)[C@@H](c2nc3cc(Cl)ccc3c(=O)n2Cc2ccccc2)C(C)C)cc1`, the GI50 in the experiment with A498 renal, in the experiment on MDA-MB-231 breast, in the experiment with MOLT-4 leukemia, in the experiment with NCI-H23 lung, in the experiment on NCI-H522 lung and in the experiment on OVCAR-5 ovarian was less than 0.01 µM each time. The GI50 in the experiment on RXF 393 renal, with SF-295 CNS and with SW-620 colon was less than 0.01 µM throughout. For the same molecule, the TGI is 1.77 µM and 0.816 µM in the experiment with A498 renal; 0.233 µM and 0.172 µM in the experiment with MDA-MB-231 breast; 3.87 µM and 1.45 µM in the experiment with MOLT-4 leukemia; 1.59 µM and 1.67 µM with NCI-H23 lung; 2.02 µM and 1.74 µM with OVCAR-5 ovarian; 1.28 µM and 1.61 µM with SW-620 colon. Further, in the experiment with UACC-257 melanoma, the TGI is 1.86 µM and 2.79 µM.
Consider `Cc1[nH]ncc1-c1cc2nc(C3CC4CCN3CC4)[nH]c(=O)c2s1` (stereo unspecified), for which the GI50 is 1.98 µM with A498 renal; 4.89 µM in the experiment on MDA-MB-231 breast; 5.52 µM with MOLT-4 leukemia; 3.82 µM in the experiment on NCI-H23 lung; 2.75 µM with NCI-H522 lung; 3.33 µM in the experiment on OVCAR-5 ovarian. Besides, the GI50 in the experiment on RXF 393 renal was 2.36 µM; with SF-295 CNS it was 2.88 µM; in the experiment on SW-620 colon, 2.65 µM; in the experiment on UACC-257 melanoma, 5.79 µM. Also, the TGI with A498 renal is 8.72 µM; in the experiment on MDA-MB-231 breast it was greater than 100 µM; in the experiment with MOLT-4 leukemia, greater than 100 µM; in the experiment with NCI-H23 lung, greater than 100 µM; in the experiment on NCI-H522 lung, 39.4 µM; in the experiment with OVCAR-5 ovarian, greater than 100 µM. The TGI with RXF 393 renal was 5.96 µM; in the experiment on SF-295 CNS it was greater than 100 µM; in the experiment on SW-620 colon, greater than 100 µM; with UACC-257 melanoma, 84 µM.
Regarding `O=C(/C=C/c1ccc(B(O)O)cc1)/C=C/c1ccc(B(O)O)cc1`, the GI50 in the experiment with A498 renal was 2.34 µM; with MDA-MB-231 breast, 3.08 µM; in the experiment on MOLT-4 leukemia, 3.59 µM; in the experiment with NCI-H23 lung, 2.85 µM; in the experiment on NCI-H522 lung it was 4.07 µM; in the experiment with OVCAR-5 ovarian, 4.4 µM. For the same molecule, the GI50 was 1.7 µM with RXF 393 renal, 2.02 µM in the experiment with SF-295 CNS, 1.79 µM in the experiment on SW-620 colon and 3.4 µM in the experiment with UACC-257 melanoma. Besides, the total growth inhibition concentration (TGI) with A498 renal came to 10.3 µM; in the experiment with MDA-MB-231 breast, 10.8 µM; in the experiment with MOLT-4 leukemia, 66.3 µM; in the experiment on NCI-H23 lung, 8.69 µM; with NCI-H522 lung, 15.7 µM; with OVCAR-5 ovarian it was 20.3 µM. Further, the TGI with RXF 393 renal was 3.45 µM; with SF-295 CNS it was 5.66 µM; in the experiment with SW-620 colon, 4.02 µM; in the experiment with UACC-257 melanoma it was 13.3 µM.
For `Cc1ccccc1NC(=S)Nc1ccccn1`, the GI50 in the experiment on A498 renal is greater than 100 µM; in the experiment on MDA-MB-231 breast, 89.7 µM; in the experiment with MOLT-4 leukemia, greater than 100 µM; in the experiment on NCI-H23 lung, 85.3 µM; in the experiment on NCI-H522 lung, greater than 100 µM; in the experiment with OVCAR-5 ovarian it was greater than 100 µM. Moreover, the GI50 with RXF 393 renal is 13.9 µM; in the experiment on SF-295 CNS it was greater than 100 µM; in the experiment with SW-620 colon, greater than 100 µM; with UACC-257 melanoma, greater than 100 µM. Further, the TGI with A498 renal, with MDA-MB-231 breast, with MOLT-4 leukemia, in the experiment with NCI-H23 lung, in the experiment on NCI-H522 lung and with OVCAR-5 ovarian was greater than 100 µM throughout. The TGI in the experiment with RXF 393 renal, in the experiment with SF-295 CNS, with SW-620 colon and in the experiment with UACC-257 melanoma was greater than 100 µM in each case.

The values are drawn from PubChem BioAssay (NCI).
